Assay results from US8173694B2, “Therapeutic agent” (Pentraxin Therapeutics Limited, priority 2001, dated 2012).

Assays:
[1] = Metabolism, excretion and oral bioavailability in mice; assay type: in vivo, mouse
[2] = biological target: T1, plasma SAP (Homo sapiens, UniProt P02743); assay: Intravenous infusion for 48 h in patients: plasma SAP by electroimmunoassay; assay type: in vivo
T1 construct: from tissue; host or cells: plasma of patients in vivo
Method: Patients with different forms of systemic amyloidosis, and with varying amyloid loads received the doses of the drug shown for a period of 48 h. Circulating SAP values were measured by electroimmunoassay (24) in samples taken during and after the infusion, at the times shown. Each line represents a different individual patient.
(R)-1-[6-(R)-2-Carboxy-pyrrolidin-1-yl]-6-oxo-hexanoyl]pyrrolidine-2-carboxylic acid was administered for 48 h by intravenous infusion to 8 patients with systemic amyloidosis (7 with AL and one with AA type), one patient with minor localised AL amyloidosis, and one who is a carrier of the amyloidogenic Ala60 transthyretin variant but has no clinical amyloidosis. […] In initial studies with slow continuous infusion, the SAP concentration started to fall when about 2 mg of (R)-1-[6-(R)-2-Carboxy-pyrrolidin-1-yl]-6-oxo-hexanoyl]pyrrolidine-2-carboxylic acid had been given, and in subsequent studies this amount was therefore injected as a bolus at the outset, followed by infusion at the rates shown (FIG. 4). […] However, after drug infusion had ceased, the plasma SAP concentration rapidly returned to normal in the individuals with little or no amyloid, whereas this recovery was markedly delayed in subjects with significant amyloidosis. In the one patient with a very heavy amyloid load, the plasma SAP concentration remained below 25% of its initial value 20 days after the infusion. Most of the daily production of SAP, which is about 50-100 mg per day (15), was evidently distributing into the amyloid deposits before becoming available to replete the plasma pool. This is very strong indirect evidence that even such a brief infusion of (R)-1-[6-(R)-2-Carboxy-pyrrolidin-1-yl]-6-oxo-hexanoyl]pyrrolidine-2-carboxylic acid had substantially depleted the amyloid-associated SAP.
Two individual patients with systemic amyloidosis and moderate amyloid loads received (R)-1-[6-(R)-2-Carboxy-pyrrolidin-1-yl]-6-oxo-hexanoyl]pyrrolidine-2-carboxylic acid (desapin) by intravenous infusion at the steady rates shown. Circulating SAP concentrations started to fall almost immediately and had halved when the concentrations of drug and SAP protomer were equimolar.
The potency of (R)-1-[6-(R)-2-Carboxy-pyrrolidin-1-yl]-6-oxo-hexanoyl]pyrrolidine-2-carboxylic acid in depleting circulating SAP was remarkable, with SAP values falling when the concentration ratio of drug to SAP pentamer in the plasma approached equimolar (FIG. 7). […] This is evidently the species recognised as abnormal and promptly cleared by the liver.

[3] = biological target: T2, isolated pure human CRP (Homo sapiens, UniProt P02741); assay: Size exclusion chromatography of isolated pure CRP mixed with drug; assay type: binding
T2 sequence (P02741 19-224): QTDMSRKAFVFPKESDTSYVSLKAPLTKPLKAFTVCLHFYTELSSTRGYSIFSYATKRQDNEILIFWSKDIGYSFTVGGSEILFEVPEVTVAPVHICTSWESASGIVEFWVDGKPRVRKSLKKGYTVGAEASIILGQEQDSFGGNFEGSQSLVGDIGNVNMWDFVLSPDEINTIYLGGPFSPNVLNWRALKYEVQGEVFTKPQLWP
Method: C-reactive protein (CRP) is a pentraxin closely related to SAP. Samples of isolated pure human SAP or CRP were mixed with (R)-1-[6-(R)-2-Carboxy-pyrrolidin-1-yl]-6-oxo-hexanoyl]pyrrolidine-2-carboxylic acid at the molar ratios shown, with respect to pentraxin protomer, in physiological ionic strength Tris buffered saline pH 8.0, and analysed by size exclusion chromatography precisely as described previously (14). The mixtures and the column eluants contained either no calcium ions or 2 mM calcium, and the concentrations of drug appropriate to maintain the molar ratios indicated above. In the absence of a specific ligand to which it can bind, purified human SAP is insoluble in the presence of calcium and elutes as high molecular weight aggregates in the void volume of the column (14). However in the absence of calcium and ligand, isolated SAP alone forms stable decamers, providing an excellent marker for the elution volume of this molecular assembly (14). Human CRP is a stable pentamer either in the presence or absence of calcium and thus provides a robust marker for the elution position of that molecular form (14).

[4] = biological target: T1, plasma SAP; assay: Subcutaneous injection in patients with systemic amyloidosis: plasma SAP; assay type: in vivo; conditions: subcutaneous injection 0.25 mg/kg/day in 12 hourly divided doses
Method: The doses of (R)-1-[6-(R)-2-Carboxy-pyrrolidin-1-yl]-6-oxo-hexanoyl]pyrrolidine-2-carboxylic acid (desapin) shown were given by 12 hourly subcutaneous injections to two individual patients with systemic amyloidosis, and with small and moderate amyloid loads respectively. The disappearance of circulating SAP was effectively the same as during intravenous infusion of the drug, and in the patient illustrated in the right panel, who had received a tracer dose of ^123I-SAP, there was accumulation of SAP in the liver and accelerated clearance from the spleen.

[5] = biological target: T3, radiolabelled human SAP (Homo sapiens, UniProt P02743); assay: Plasma clearance of radiolabelled human SAP tracer in mice; assay type: in vivo, mouse
T3 construct: intravenous injection of ^125I-labelled pure human or mouse SAP at time zero
Method: Clearance from the amyloid deposits, catabolism and excretion of the human SAP tracer were monitored globally by whole body counting of the mice (left), and the total amount of mouse SAP in the amyloidotic organs was determined after killing the animals on day 5 (right). […] Immediately after the 15 minute bleed, two groups, one that had received human SAP and the other mouse SAP, received a single intraperitoneal injection of 5 mg of (R)-1-[6-(R)-2-Carboxy-pyrrolidin-1-yl]-6-oxo-hexanoyl]pyrrolidine-2-carboxylic acid (desapin). Tracer remaining in the circulation is expressed as the mean (SD) percentage of the amount at the 15 minute time point for each group. […] In one of each of the pairs of groups receiving mouse or human SAP respectively, the tracer had been mixed with (R)-1-[6-(R)-2-Carboxy-pyrrolidin-1-yl]-6-oxo-hexanoyl]pyrrolidine-2-carboxylic acid (desapin) and incubated in vitro before injection into the animals. Tracer remaining in the circulation is expressed as mean (SD) total radioactivity per gram of blood in each group. Bottom panel: effect of administration of (R)-1-[6-(R)-2-Carboxy-pyrrolidin-1-yl]-6-oxo-hexanoyl]pyrrolidine-2-carboxylic acid (desapin) in the drinking water at the concentrations shown, on circulating human SAP values in human SAP transgenic mice. Mice of approximately 20 g body weight consume about 3 ml water per day. […]

[6] = drug:protein 1:1, calcium present
[7] = drug:protein 10:1, calcium present

T1 sequence (P02743 20-223): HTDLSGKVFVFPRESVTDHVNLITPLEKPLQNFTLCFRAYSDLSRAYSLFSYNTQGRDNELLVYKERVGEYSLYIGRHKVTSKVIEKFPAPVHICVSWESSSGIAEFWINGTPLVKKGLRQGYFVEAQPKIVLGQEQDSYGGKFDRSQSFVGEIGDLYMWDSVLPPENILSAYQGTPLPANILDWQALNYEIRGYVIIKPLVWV
T3 sequence (P02743 20-223): as above

Metabolism [1]: not metabolised | Oral bioavailability [1]: very limited oral bioavailability | SAP clearance from plasma by the end of the infusion ([2]; 0.25 mg/kg/day and all higher rates up to 6 mg/kg/day): almost completely cleared | Plasma SAP concentration, of its initial value ([2]; 20 days after the infusion, one patient with very heavy amyloid load): below 25% | SAP depletion ([2]; infusion rate 0.1 mg/kg/day): slower and less complete | Amount of drug given when SAP concentration started to fall ([2]; slow continuous intravenous infusion): about 2 mg | Circulating SAP concentration when drug and SAP protomer concentrations were equimolar ([2]; two patients, 48 h intravenous infusion): halved | Elution volume [3, 6]: 12.58 mL | Molecular assembly [3, 6]: Pentamer | Elution volume [3, 7]: 11.96 mL | Molecular assembly [3, 7]: Pentamer | Effect on plasma SAP compared with intravenous infusion [4]: the same effect | Plasma clearance of radiolabelled human SAP tracer ([5]; single intraperitoneal injection of 5 mg): accelerated | Clearance of radiolabelled human SAP preincubated with drug in vitro ([5]; tracer preincubated with drug before intravenous injection into normal mice): extremely rapidly cleared
SMILES: O=C(O)[C@H]1CCCN1C(=O)CCCCC(=O)N1CCC[C@@H]1C(=O)O [(R)-1-[6-(R)-2-Carboxy-pyrrolidin-1-yl]-6-oxo-hexanoyl]pyrrolidine-2-carboxylic acid]
Excretion [1]: very rapidly excreted, predominantly in the urine, with a small amount in the bile | Depletion of circulating SAP ([2]; 48 h intravenous infusion, all 10 subjects): dramatic, rapid, and consistent depletion
